# Measurements reported in patent publication US20040121946A9, “Inducing cellular immune responses to her2/neu using peptide and nucleic acid compositions” (priority 2002, published 2004).
# Like-named read-outs stand apart in the source and are kept apart here.
# Tests used:
# DRB1*0101 (DR1) = DRB1*0101 (DR1) (Homo sapiens, UniProt P01903+P01911, A100R/D57E/F55L/F60I/F76Y/I96L/L162R/M171V/P40L/Q125E/R42F/V115G/Y59C); assay: HLA class II peptide binding assay, purified HLA; settings: unit not given
# DRB1*0301 (DR3) = DRB1*0301 (DR3) (Homo sapiens, UniProt P01903+P01911, A100K/A102G/A103R/A169T/F55Y/I96L/K41T/L162R/M171V/P40S/Q125H/Q178H/Q39Y/R42S/S66N/T106N/T262R/W38E/Y61H); assay: HLA class II peptide binding assay, purified HLA; settings: unit not given
# DRB1*0401 (DR4w4) = DRB1*0401 (DR4w4) (Homo sapiens, UniProt P01903+P01911, A100K/A169T/F76Y/I96L/K127E/L162R/M171V/N62H/P40V/Q125Y/R42H/S133A/S149N/S66Y/V115G/V209L/W38E); assay: HLA class II peptide binding assay, purified HLA; settings: unit not given
# DRB1*0701 (DR7) = DRB1*0701 (DR7) (Homo sapiens, UniProt P01903+P01911, A100R/A102G/A103Q/D57E/D86V/E43K/F76Y/K127E/L162R/M171V/P40G/Q125H/Q99D/R33Q/R42Y/R54Q/S133A/S66F/T210M/V115G/Y107V/Y59L/Y89S); assay: HLA class II peptide binding assay, purified HLA; settings: unit not given
# DRB1*0802 (DR8w2) = DRB1*0802 (DR8w2) (Homo sapiens, UniProt P01903+P01911, A100R/A103L/A169T/F76Y/H45Y/I96F/K41T/L162R/M171V/P40S/Q125H/Q178H/Q39Y/Q99D/R218S/R42G/S66Y/V115G/W38E); assay: HLA class II peptide binding assay, purified HLA; settings: for DR8w2 binding data: unit not given
# DRB1*1101 (DR5w11) = DRB1*1101 (DR5w11) (Homo sapiens, UniProt P01903+P01911, A100R/A169T/A87E/I96F/K41T/L162R/M171V/P40S/Q125H/Q178H/Q39Y/Q99D/R42S/S66Y/T262R/V115G/W38E); assay: HLA class II peptide binding assay, purified HLA; settings: for DR5w11 binding data: unit not given
# DRB1*1302 (DR6w19) = DRB1*1302 (DR6w19) (Homo sapiens, UniProt P01903+P01911, A100E/A169T/K41T/L162R/M171V/P40S/Q125H/Q178H/Q39Y/Q99D/R42S/S66N/T262R/V115G/W38E/Y61H); assay: HLA class II peptide binding assay, purified HLA; settings: for DR6w19 binding data: unit not given
# DRB1*1501 (DR2w2β1) = DRB1*1501 (DR2w2β1) (Homo sapiens, UniProt P01903+P01911); assay: HLA class II peptide binding assay, purified HLA; settings: for DR2wB1 binding data: Table XIX, DR supermotif peptides; for IC50: Table XXIX, read-out: DR2w2β1 nM
# DRB5*0101 (DR2w2β2) = DRB5*0101 (DR2w2β2) (Homo sapiens, UniProt P01903+Q30154); assay: HLA class II peptide binding assay, purified HLA; settings: for DR2w2B2 binding data: unit not given
# [1] = system: HLA-DR molecules (DR1, DR4w4, DR7, DRB5*0101, DRB1*1501, DRB1*1101, DRB1*0802, DRB1*1302); assay: DR supertype cross-reactive binding; design: species or system human; settings: for DR147 Binding / DR147 Cross-binding: number of DR1, DR4w4, DR7 bound; for DR147 Binding: Table XXIX; for DR147 Cross-binding: Table XXVIII; for Broad Binding (5/8): number of the 8 DR alleles bound; for No. of DR Alleles Crossbound: Table XXXI
# [2] = Table XIX, DR supermotif peptides
# [3] = Table XXa, DR 3a motif peptides
Compound,DR1 binding data (DRB1*0101 (DR1); [2]),DR3 binding data (DRB1*0301 (DR3); [2]),DR4w4 binding data (DRB1*0401 (DR4w4); [2]),DR7 binding data (DRB1*0701 (DR7); [2]),DR8w2 binding data (DRB1*0802 (DR8w2); [2]),DR5w11 binding data (DRB1*1101 (DR5w11); [2]),DR6w19 binding data (DRB1*1302 (DR6w19); [2]),DR2wB1 binding data (DRB1*1501 (DR2w2β1); unit not given),IC50 (DRB1*1501 (DR2w2β1)) [nM],DR2w2B2 binding data (DRB5*0101 (DR2w2β2); [2]),DR147 Binding [1],DR147 Cross-binding [1],Broad Binding (5/8) [1],No. of DR Alleles Crossbound [1],further results
CC[C@H](C)[C@H](NC(=O)[C@H](CCCCN)NC(=O)[C@H](CCCCN)NC(=O)[C@@H](N)CS)C(=O)N[C@@H](Cc1ccccc1)C(=O)NCC(=O)N[C@@H](CO)C(=O)N[C@@H](CC(C)C)C(=O)N[C@@H](C)C(=O)N[C@@H](Cc1ccccc1)C(=O)N[C@@H](CC(C)C)C(=O)N1CCC[C@H]1C(=O)N[C@@H](CCC(=O)O)C(=O)N[C@@H](CO)C(=O)N[C@@H](Cc1ccccc1)C(=O)O,0.2400,0.0010,−0.0025,0.0270,−0.0004,−0.0005,0.0034,0.0070,1300,0.0016,2,2,2,,
CC[C@H](C)[C@H](NC(=O)[C@H](CCSC)NC(=O)[C@H](Cc1ccc(O)cc1)NC(=O)[C@@H](NC(=O)[C@H](CC(=O)O)NC(=O)[C@@H](NC(=O)[C@@H](NC(=O)[C@H](CS)NC(=O)[C@@H](NC(=O)[C@@H]1CCCN1C(=O)[C@@H]1CCCN1C(=O)[C@@H](N)CCC(N)=O)[C@@H](C)CC)[C@@H](C)O)[C@@H](C)CC)C(C)C)C(=O)N[C@@H](CCSC)C(=O)N[C@H](C(=O)N[C@@H](CCCCN)C(=O)O)C(C)C,0.0670,0.0976,0.0060,0.1000,0.0051,0.0046,0.0013,0.0540,,0.0027,2,2,3,,
CC[C@H](C)[C@H](NC(=O)CNC(=O)[C@H](CC(C)C)NC(=O)[C@H](CC(C)C)NC(=O)[C@H](CCCNC(=N)N)NC(=O)[C@@H](N)CO)C(=O)N[C@@H](CS)C(=O)N[C@@H](CC(C)C)C(=O)N[C@H](C(=O)N[C@@H](CO)C(=O)N[C@H](C(=O)N[C@H](C(=O)N[C@@H](CCC(N)=O)C(=O)N[C@@H](CC(C)C)C(=O)N[C@H](C(=O)O)C(C)C)C(C)C)[C@@H](C)O)[C@@H](C)O,0.3500,0.0062,0.1200,0.5600,0.0009,0.0140,0.3400,0.0220,,−0.0007,3,3,5,5,
CC[C@H](C)[C@H](NC(=O)CNC(=O)[C@H](Cc1ccccc1)NC(=O)[C@@H](NC(=O)[C@@H](NC(=O)CNC(=O)[C@H](CC(C)C)NC(=O)[C@@H](N)C(C)C)C(C)C)C(C)C)C(=O)N[C@@H](CC(C)C)C(=O)N[C@H](C(=O)N[C@@H](CCCCN)C(=O)N[C@@H](CCCNC(=N)N)C(=O)N[C@@H](CCCNC(=N)N)C(=O)N[C@@H](CCC(N)=O)C(=O)N[C@@H](CCC(N)=O)C(=O)O)[C@@H](C)CC,0.0700,0.0021,0.0029,0.0320,0.6400,0.4700,0.0150,0.0110,,0.0620,2,2,7,7,
CC(C)C[C@H](NC(=O)[C@H](CC(=O)O)NC(=O)[C@H](CCCNC(=N)N)NC(=O)[C@H](Cc1c[nH]cn1)NC(=O)[C@@H](NC(=O)[C@H](CC(C)C)NC(=O)[C@H](CCCNC(=N)N)NC(=O)[C@@H](N)C(C)C)C(C)C)C(=O)N[C@@H](C)C(=O)N[C@@H](C)C(=O)N[C@@H](CCCNC(=N)N)C(=O)N[C@@H](CC(N)=O)C(=O)N[C@H](C(=O)N[C@@H](CC(C)C)C(=O)N[C@H](C(=O)O)C(C)C)C(C)C,0.0340,0.3400,0.0150,0.0230,0.1000,0.2700,0.0430,0.0064,,0.0033,,,,4,"DR1 binding data (DRB1*0101 (DR1); [3]): 0.0340; DR3 binding data (DRB1*0301 (DR3); [3]): 0.3400; DR4w4 binding data (DRB1*0401 (DR4w4); [3]): 0.0150; DR7 binding data (DRB1*0701 (DR7); [3]): 0.0230; IC50 (DRB1*0802 (DR8w2); Table XXXI): 490 nM; DR8w2 binding data (DRB1*0802 (DR8w2); [3]): 0.1000; IC50 (DRB1*1101 (DR5w11); Table XXXI): 74 nM; DR5w11 binding data (DRB1*1101 (DR5w11); [3]): 0.2700; IC50 (DRB1*1302 (DR6w19); Table XXXI): 81 nM; DR6w19 binding data (DRB1*1302 (DR6w19); [3]): 0.0430; DR2w2B1 binding data (DRB1*1501 (DR2w2β1); Table XXa, DR 3a motif peptides, unit not given): 0.0064; DR2w2B2 binding data (DRB5*0101 (DR2w2β2); [3]): 0.0033"
CC[C@H](C)[C@H](NC(=O)CNC(=O)[C@H](CC(=O)O)NC(=O)[C@H](Cc1ccc(O)cc1)NC(=O)[C@@H]1CCCN1C(=O)[C@H](CCCCN)NC(=O)[C@H](C)NC(=O)CNC(=O)[C@H](Cc1ccccc1)NC(=O)[C@@H](NC(=O)[C@H](CCSC)NC(=O)[C@H](CC(C)C)NC(=O)[C@H](CCC(=O)O)NC(=O)[C@H](Cc1c[nH]c2ccccc12)NC(=O)[C@@H](N)C(C)C)[C@@H](C)O)C(=O)O,0.0870,0.0010,0.0550,0.0370,0.0089,0.0054,0.0004,0.0990,92,0.1000,3,3,5,5,"IC50 (DRB1*1101 (DR5w11); Table XXIX, read-out: DR5w11 nM): 3700 nM; IC50 (DRB5*0101 (DR2w2β2); Table XXIX, read-out: DR2w2β2 nM): 200 nM"
